Measurements reported in patent US8420605B2, “Hydrogel compositions” (The University of Strathclyde, priority 2005, dated 2013).
Peptide text beside a SMILES is read from it. * marks the point of attachment. Fmoc = O=C(OCC1c2ccccc2-c2ccccc21)*

Tests used:
Assay type in all cases: cell-based
[1] = system: human adult dermal fibroblasts; experiment: 2D culture on surface of self-assembled peptide hydrogel, cell phenotype under inverted light microscope; conditions: for appearance of fibroblasts on top of hydrogel: 10 mM/L gel
Procedure: An initial 2D culture of human adult dermal fibroblasts was carried out on the surface of 10 mM/L Fmoc-Phe-Phe-OH self-assembled peptide hydrogels and cell phenotype was investigated under inverted light microscope.
(§1) Generally, 0.0107 gram of Fmoc-Phe-Phe-OH was weighed in a glass vial and sterilized for 30 minutes by an ultraviolet light with bottles of distilled water, filtered NaOH (Sodium Hydroxide, 0.5 M/L), filtered HCl (Hydrochloric Acid, 0.5 M/L), and relevant apparatus (spatulas, pipettes, Vortex). 2 mL of the sterile distilled water was then added into the glass vial of Fmoc-Phe-Phe, and the mixture was vortexed for a few seconds to create a suspension. Afterwards, approximate 100 μL of NaOH was gradually pipetted into the suspension (20 μL each pipetting) and the mixture was vortexed after every addition of the alkaline. The whole mixture was shaken continually until a homogeneous transparent solution was obtained. The basic peptide solution (pH around 10) was finally neutralized to pH 7 by dropwise addition of HCl and pH values were monitored by a pH meter with a micro-probe.
The above peptide solutions of physiological pH were aliquoted into a 24 well-plate with 500 μL in each well and the well plate was maintained in a 37° C./5% CO2 incubator overnight. The solution underwent a self-assembling to become hydrogels. Human adult dermal fibroblasts in suspension were then poured on top of the self-assembled hydrogels with 1 mL cell suspension for each well. Cell suspensions of 8×10^4/mL were used with a serum-free DMEM (Dulbecco's modified Eagle's medium) supplemented by 1% antibiotics/antimicotics. […] These originally spreaded cells, however, became rounded with a diameter of around 10 microns between 24 and 72 hours. The phenomenon indicated of a dynamic solid (gel)-liquid (culture medium) interface which formed a malleable, unstable gel surface to wrap and sink cells into the interacted nano-filaments of the gel structure resulting the cells' rounding up.

Human dermal fibroblasts = system: Human dermal fibroblasts
Source text: In order to coarsely test cell viability, a Live/Dead assay was chosen in which two reagents of EthD-1 and Calcine AM were involved. […] With the help of this staining and fluorescence microscope, living and dead cells could be easily visualized therefore viability inside the culture is measured.
as §1, with “For making Fmoc-Phe-Phe-OH peptide solution,” for “Generally,”, “Fmoc-Phe-Phe-OH,” for “Fmoc-Phe-Phe,”, “The whole mixture was shaken continually until a homogeneous transparent solution was obtained.” left out, “micro-probe. […]” for “micro-probe.”

[2] = system: Human mesenchymal stem cells (MSCs); experiment: PCR gene expression of cells cultured in gels for 14 days; conditions: after 14 days
Procedure: Human mesenchymal stem cells (MSCs) were isolated from bone marrow taken from patients (with both patient and ethical consent) undergoing hip replacement surgery.A HISTOPAQUE (SIGMA-ALDRICH) gradient was used to isolate mononuclear cells and these cells were cultured in monolayer with α-MEM (with 10% heat-inactivated foetal calf serum, 100 U/ml streptomycin/penicillin and 0.85 mM ascorbic acid) under standard culture conditions (humidified atmostphere, 37° C., 5% CO2). After 5 days non-adherent cells were removed by washing with media.
At 80% confluence in passage 3 the MSCs were trypsinised and a cell count was performed. A suitable number of cells were centrifuged at 400 g for 5 minutes and then resuspended in a 10 mM Fmoc-Phe-Phe solution to a final concentration of 4×10^6 cells/ml. The cell suspension was mixed to ensure even cell distribution and 200 μl layers were pipetted into high pore density (0.4 μm pore size) cell culture inserts in 24-well plates. Media (α-MEM as previously described) was added gently to both the well and the insert and gels were allowed to polymerise.
The cell-seeded gels were then cultured under standard conditions for 14 days with media changed every 2 days. Following culture 1 ml of TRIZOL was added to each insert and the gels disrupted by pipetting. A modified RNA extraction procedure was performed combining both the TRIZOL and PURELINK (INVITROGEN) extraction procedures. RNA was reverse transcribed to cDNA using SUPERSCRIPT II (INVITROGEN) and PCR performed using a standard HOTSTARTAQ (QIAGEN) procedure for the house-keeping gene GAPDH as well as the transcription factor SOX-9, aggrecan and collagen types I and II.
PCR products were run on a 1.5% agarose gel containing ethidium bromide and visualised on a UV-transilluminator.

Which “appearance of fibroblasts on top of hydrogel” value (shortened to “appearance of fibroblasts”) ([1]; 4 hours, 2D culture) does the source give for O=C(N[C@@H](Cc1ccccc1)C(=O)N[C@@H](Cc1ccccc1)C(=O)O)OCC1c2ccccc2-c2ccccc21 [Entry 1, Fmoc-Phe-Phe-OH] (Fmoc-Phe-Phe-OH) here?
Its value is “spreaded”.

And the “appearance of fibroblasts” value ([1]; 6 hours, 2D culture)?
The value was “spreaded”.

What about the “appearance of fibroblasts” value ([1]; 24 hours, 2D culture) of the same molecule?
Its value is “rounded”.

What about the “diameter of rounded cells” value ([1]; between 24 and 72 hours, 2D culture) of the same molecule?
The value was “around 10 microns”.

And the “cell attachment and spreading” value ([1]; within the first 8 hours of culturing, 2D)?
The value was “cell attachment and spreading was observed”.

And the “cell viability (live/dead staining)” value (Human dermal fibroblasts)?
Its value is “majority of cells were shown to be living”.

And the “cell spreading in the gel” value (Human dermal fibroblasts; during the first 3 days, 3D culture)?
Its value is “did not complete spreading”.

What about the “cell viability (from gene expression)” value [2] of the same molecule?
The value was “viable cells present”.

What about the “expression of GAPDH” value ([2]; 10 mM gel) of the same molecule?
Its value is “expression”.

And the “expression of SOX-9” value ([2]; 10 mM gel)?
Its value is “lack of expression”.

What about the expression of aggrecan ([2]; 10 mM gel) of the same molecule?
Its expression of aggrecan is “lack of expression”.

And the “expression of type I collagen” value ([2]; 10 mM gel)?
Its value is “expression”.

And the “expression of type II collagen” value ([2]; 10 mM gel)?
Its value is “lack of expression”.
